Assay results reported in patent US11154551B2, “HDAC1,2 inhibitors and methods of using the same” (UNIVERSITY OF UTAH RESEARCH FOUNDATION, priority 2014, dated 2021).
Entries after “also recorded” stand apart in the source; their conditions may differ.

Assays:
SUDHL4 cells = assay: propidium-iodide / BrdU-PI cell cycle analysis; format: cell-based, human
Experimental: (B): Quantitation of the cell cycle data in (A), compiled from three independent analyses. The graphs plotted the average percentage of cells in each phase of the cell cycle. […] (C): FACS analysis following BrdU-PI staining of Karpas-422 and SUDHL4 cells was performed following a 48 h or 72 h treatment with ACY-957.
(B): Quantitation of the cell cycle analysis performed in (A). Data from three independent cell cycle analyses were compiled and average percentage cells with standard errors were shown in this panel.
Propidium-iodide Cell Cycle Analysis.
Since these DLBCL cells expressed a hyperactive form of EZH2, pharmacological inhibition of EZH2 activity was considered a therapeutic strategy. […] GSK126 was a S-adenosyl-methionine-competitive inhibitor of EZH2 methyltransferase activity, and DZNep was a S-adenosylhomocysteine hydrolase inhibitor that disrupted the components of the PRC2 complex, thereby causing reduced chromatin-associated EZH2 levels.

[1] = test system: Karpas-422 and SUDHL4 cells; assay: Western blot of chromatin extracts for H3K27ac and H3K27me3; format: cell-based, human
Experimental: Western blot analysis was done with anti-H3K27ac, H3K27me3 or EZH2 and histone H3 served as a loading control.
Following DMSO or ACY-957 treatment, cells were exposed to a 5Gy dose of ionizing radiation and allowed to recover for 30 minutes prior to chromatin extraction. Western blots were performed with anti-H3K27ac or anti-H3K27me3 with histone H3 serving as a loading control. (B-E): Karpas-422, SUDHL4, WSU-DLCL2 and HeLa cells were laser micro-irradiated and allowed to recover for 15 minutes before fixation and immunofluorescence staining with anti-γH2AX and anti-H3K27me3. Subsequently, the percentage of cells with H3K27me3 lines that co-localized with γH2AX were counted. Merge is the overlay of γH2AX and H3K27me3 pictures. (F-I): At least 100 cells with γH2AX lines were counted in each experiment. The quantitation shown was the average calculated from independent experiments+/−standard error. Quantitation from five, seven, five and six independent experiments performed in Karpas-422, SUDHL4, WSU-DLCL2 and HeLa cells, respectively, was used in the graph shown in this figure. (J): Karpas-422 cells were micro-irradiated with a laser and allowed to recover for 15 minutes before fixation and immunofluorescence staining was performed with anti-γH2AX and anti-H3K27ac.
Protein Preparation and Western Blot Analysis.
The histone H3K27 residue was subjected to reversible acetylation and methylation. […] We also treated cells with the second EZH2 inhibitor, GSK126 alone, or combined with ACY-957 (ACY-957+GSK126). […] Cells were treated for 48 h prior to preparing chromatin extracts for Western analysis using antibodies recognizing H3K27ac or H3K27me3.
We first examined whether inhibiting HDAC1,2 activity induced any change in global H3K27ac or H3K27me3 on chromatin following DNA damage and during DNA repair. SUDHL4 or Karpas-422 cells with or without exposure to ionizing radiation (IR) were initially treated with DMSO or ACY-957 for 48 hr. Chromatin extracts were prepared from these cells following a 30 min recovery period (the repair phase) and changes in histone modifications were examined by Western blotting.

Karpas-422 cells = assay: 53BP1 and γH2AX foci formation after doxorubicin; format: cell-based, human; conditions: 24 h pretreatment
Experimental: After 4 h or 8 h of doxorubicin treatment, cells were fixed and immunofluorescence staining was performed with anti-γH2AX and anti-53BP1 antibodies. Cells shown were representative images based on the quantitation. Merge was the overlay of γH2AX and 53BP1 pictures. (B) and (C): Graphs depicted the percentage of cells with 53BP1 foci present at γH2AX containing break sites and the percentages of cells with γH2AX foci.
Immunofluorescence. Cells were fixed in either 10% formalin or methanol-acetone (1:1) for 10 min at −20*C. The cells were then permeabilized with 0.5% Triton-X-100 in PBS for 5 min at room temperature (RT), blocked in 10% normal goat serum (Sigma) for 30 min and stained with primary antibody for 1 h at RT. Cells were incubated with secondary antibody (anti-mouse or anti-rabbit IgG, Alexa Fluor 488/546) at a 1:600 dilution for 45 min at RT, and counterstained with Hoechst 33342 (Sigma) at 1:1000 dilution to visualize the nuclei. Images were captured using Zeiss Axioskop mot plus microscope with a 40× lens and analyzed using the AxioVision software.
To test this possibility, we treated DLBCL cells with DMSO or ACY957 for 24 h prior to a low dose of doxorubicin (50 nM) treatment. We examined γH2AX and 53BP1 foci formation at 4 h or 8 h post-doxorubicin treatment using immunofluorescence.
The percentage of cells containing 0, 1-5, 6-10 and greater than 10 γH2AX and 53BP1 foci were determined in at least 100 cells from three independent experiments.

[2] = test system: Karpas-422 (EZH2GOF) cells; assay: neutral comet assay of DSB repair; format: cell-based, human
Source text: (A) Measurement of repair efficiency in SUDHL5 (EZH2^WT) and Karpas-422 (EZH2^GOF) cells using neutral comet assay that detects only double-strand breaks (DSBs). In the comet, the head (H) represents intact DNA and the tail (T) represents the number of DSBs in a single cell. Tail moment is a measure of length and intensity of DNA in the tail, and the average tail moments from 100 comets are indicated within the figure for each cell/treatment combination. Doxo indicates doxorubicin; H121N indicates HDAC1,2 inhibitor. (B) DNA damage in EZH2GOF cells following knockdown of HDAC1,2 using siRNA. NT indicates non-targeting control siRNA; HDAC1,2 siRNA indicates combined treatment with HDAC1 siRNA and HDAC2 siRNA. (C) Karpas-422 cells treated with DMSO solvent or HDAC1,2 inhibitor were subjected to microlaser irradiation. H3K27me3, γH2AX, Bmi-1, and serine2-phosphorylated RNA Polymerase II (engaged in transcriptional elongation) were monitored at laser break sites (arrows) after 15 minutes of recovery time. Numbers overlaying the images indicate percentages of cells with γH2AX lines that co-localized with H3K27me3, Bmi-1, or Pol2Ser2-P lines from at least four independent experiments (p value<0.01).
Indeed, EZH2, H3K27me3, and HDAC1,2 all localize to sites of DNA breaks, which links them to DNA repair. […]

[3] = test system: Karpas-422 and SUDHL4 cells; assay: Western blot of histone acetylation marks in whole cell lysates; conditions: vs DMSO
Experimental: Compounds were diluted in DMSO to 50 fold the final concentration and a ten point three fold dilution series was made. The compounds were diluted in assay buffer (50 mM HEPES, pH 7.4, 100 mM KCl, 0.001% Tween-20, 0.05% BSA, 20 μM tris(2-carboxyethyl)phosphine) to 6 fold their final concentration. The HDAC enzymes (purchased from BPS Biosciences) were diluted to 1.5 fold their final concentration in assay buffer. The tripeptide substrate (synthesized in house) and trypsin at 0.05 μM final concentration were diluted in assay buffer at 6 fold their final concentration. Five μl compounds and 20 μl of enzyme were added to wells of a black, opaque 384 well plate in duplicate. Enzyme and compound were incubated together at room temperature for 10 minutes. Five μl of substrate was added to each well, the plate was shaken for 60 seconds and placed into a Victor 2 microtiter plate reader. The development of fluorescence was monitored for 60 min and the linear rate of the reaction was calculated. The IC50 was determined using Graph Pad Prism by a four parameter curve fit.

Nc1ccc(-c2cccs2)cc1NC(=O)c1ccc2nc(N3CCNCC3)ccc2c1 [ACY-957, N-(2-amino-5-(thiophen-2-yl)phenyl)-2-(piperazin-1-yl)quinoline-6-carboxamide]
progression through the cell cycle (SUDHL4 cells; 24 h, 2 μM ACY-957, 0.5 μM DZNEP, 0.5 μM GSK126): did not affect their progression through the cell cycle
cell cycle / G1 arrest (SUDHL4 cells; 48 h, 2 μM ACY-957, 0.5 μM GSK126): accumulation of SUDHL4 cells in G1 phase (G1 arrest)
S-phase population, BrdU-PI FACS (SUDHL4 cells; 48 h and 72 h, accompanied by G1 arrest): decrease in S-phase population
cell cycle / G1 arrest and sub-G1 (SUDHL4 cells; 72 h, 2 μM ACY-957, 0.5 μM DZNEP, 0.5 μM GSK126): greater number of cells arrested in G1 phase; also recorded: cell cycle arrest at G1 phase in SUDHL4 cells
global H3K27ac levels ([1]; 48 h, chromatin extracts): robust increase in global H3K27ac levels
global H3K27me3 levels ([1]; 48 h, chromatin extracts): remained unchanged
global H3K27me3 levels on chromatin ([1]; 48 hr, 30 min recovery from IR): concomitant decrease in global H3K27me3 levels on chromatin was not observed
global H3K27ac levels on chromatin ([1]; 48 hr, with or without exposure to IR): increased
53BP1 foci co-localizing with γH2AX foci (Karpas-422 cells; 4 h post-doxorubicin (50 nM)): decrease in the number of 53BP1 foci
percentage of cells with 53BP1 foci (Karpas-422 cells; 8 h doxorubicin): increased to the level that was observed in the control DMSO-treated cells
percentage of cells with γH2AX foci (Karpas-422 cells; 8 h doxorubicin): even higher percentage of cells with 6-10 and greater than 10 γH2AX foci
DSBs, comet tail moment [2]: increase in comet tail moment
H3K23ac levels ([3]; 2 μM, 24 hours): increased H3K23ac levels
H3K9,K14ac and H4K5ac levels ([3]; increasing amounts, 24 hr): concentration-dependent increase
